# According to patent publication US8822468B2 (Novartis AG, priority 2008, dated 2014):
# Target: T1, cMET receptor tyrosine kinase (GST-cMET (969-1390)) (Homo sapiens, UniProt P08581)
# T1 construct: made in house
# Experiment: EPK cMET profiling assay (LanthaScreen TR-FRET antibody based kinase phosphorylation assay)
# Format: biochemical
# Settings: purified recombinant GST-cMET (969-1390), 2 μM ATP, 50 nM Fluorescein-PolyEAY, 60 minutes at room temperature; read-out: c-Met IC50
# Procedure, shortened: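 GST-cMET cytoplasmic domain (969-1390), 0.3 nM, phosphorylated 50 nM fluorescein-PolyEAY with 2 µM ATP, Mg2+/Mn2+, 0.6% DMSO, 60 min at room temperature. Stopped with EDTA; Tb-PY20 antibody TR-FRET single end-point read. Final compound concentrations 10 to 0.003 µM, 8 points.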
# T1 sequence (P08581 969-1390): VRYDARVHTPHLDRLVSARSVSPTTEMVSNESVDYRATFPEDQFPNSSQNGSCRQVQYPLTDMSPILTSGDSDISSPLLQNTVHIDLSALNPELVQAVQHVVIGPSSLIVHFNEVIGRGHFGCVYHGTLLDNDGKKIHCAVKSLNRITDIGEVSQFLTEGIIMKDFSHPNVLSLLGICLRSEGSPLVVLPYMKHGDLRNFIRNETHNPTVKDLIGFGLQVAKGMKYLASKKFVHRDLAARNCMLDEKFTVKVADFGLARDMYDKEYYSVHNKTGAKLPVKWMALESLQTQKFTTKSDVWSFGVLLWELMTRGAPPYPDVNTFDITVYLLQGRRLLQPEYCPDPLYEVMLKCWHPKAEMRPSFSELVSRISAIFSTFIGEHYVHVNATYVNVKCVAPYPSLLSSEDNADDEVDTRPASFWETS
row,SMILES,IC50
1,"OCCn1cc(-c2ccc3ncc(Cc4ccc5ncccc5c4)n3n2)cn1 [Example 210, 2-[4-(3-Quinolin-6-ylmethyl-imidazo[1,2-b]pyridazin-6-yl)-pyrazol-1-yl]-ethanol]",52 nM
2,"C=C(c1ccc2ncccc2c1)c1cnc2ccc(-c3cnn(C)c3)nn12 [Example 155, 6-{1-[6-(1-Methyl-1H-pyrazol-4-yl)-imidazo[1,2-b]pyridazin-3-yl]-vinyl}-quinoline]",860 nM
3,"c1cnc2ccc(Cc3cnc4ccc(-c5ccn[nH]5)nn34)cc2c1 [Example 69, 6-[6-(2H-Pyrazol-3-yl)-imidazo[1,2-b]pyridazin-3-ylmethyl]-quinoline]",820 nM
4,"CC(c1ccc2ncccc2c1Cl)c1cnc2ccc(-c3cnn(C)c3)nn12 (racemic) [Example 225, (rac)-5-Chloro-6-{1-[6-(1-methyl-1H-pyrazol-4-yl)-imidazo[1,2-b]pyridazin-3-yl]-ethyl}-quinoline]",25 nM
5,CC(c1cc2cccnc2cc1F)c1cnc2ccc(-c3cnn(CCO)c3)nn12 (racemic) [Example 255],36 nM
6,"O=[N+]([O-])c1cccc(-c2ccc3ncc(Cc4ccc5ncccc5c4)n3n2)c1 [Example 22, 6-[6-(3-Nitro-phenyl)-imidazo[1,2-b]pyridazin-3-ylmethyl]-quinoline]",7.4 nM
7,"C[C@@H](c1ccc2ncccc2c1)c1cnc2ccc(-c3cnn(CCO)c3)nn12 [Example 179, 2-{4-[3-((S)-1-Quinolin-6-yl-ethyl)-imidazo[1,2-b]pyridazin-6-yl]-pyrazol-1-yl}-ethanol]",15 nM
8,"FC(F)(F)c1cccc(Nc2ccc3ncc(Cc4ccc5ncccc5c4)n3n2)c1 [Example 127, (3-Quinolin-6-ylmethyl-imidazo[1,2-b]pyridazin-6-yl)-(3-trifluoromethyl-phenyl)-amine]",90 nM
9,"CN(C)[C@@H]1CCN(c2ccc3ncc(Cc4ccc5nccn5c4)n3n2)C1 [Example 76, [(R)-1-(3-Imidazo[1,2-a]pyridin-6-ylmethyl-imidazo[1,2-b]pyridazin-6-yl)-pyrrolidin-3-yl]-dimethyl-amine]",300 nM
10,"CC(c1ccc2nccn2c1)c1cnc2ccc(-c3cnn(CCO)c3)nn12 (racemic) [Example 189, (rac)-2-{4-[3-(1-Imidazo[1,2-a]pyridin-6-yl-ethyl)-imidazo[1,2-b]pyridazin-6-yl]-pyrazol-1-yl}-ethanol]",95 nM
11,"Clc1cc(-c2cc(-c3ccc4ncc(Cc5ccc6ncccc6c5)n4n3)ccn2)ccn1 [Example 50, 2′-Chloro-4-(3-quinolin-6-ylmethyl-imidazo[1,2-b]pyridazin-6-yl)-[2,4′]bipyridinyl]",950 nM
12,"CC(=O)c1cnc2ccc(Cc3cnc4ccc(-c5cnn(C)c5)nn34)cn12 [Example 301, 1-{6-[6-(1-Methyl-1H-pyrazol-4-yl)-imidazo[1,2-b]pyridazin-3-ylmethyl]-imidazo[1,2-a]pyridin-3-yl}-ethanone]",71 nM
13,"FC(F)(F)c1ccc(-c2ccc3ncc(Cc4ccc5ncccc5c4)n3n2)cc1 [Example 33, 6-[6-(4-Trifluoromethyl-phenyl)-imidazo[1,2-b]pyridazin-3-ylmethyl]-quinoline]",370 nM
14,"CC(c1cc2cnn(C)c2cc1F)c1cnc2ccc(-c3cnn(CCO)c3)nn12 (racemic) [Example 279, (rac)-2-(4-{3-[1-(6-Fluoro-1-methyl-1H-indazol-5-yl)-ethyl]-imidazo[1,2-b]pyridazin-6-yl}-pyrazol-1-yl)-ethanol]",15 nM
15,"Cn1cc(-c2ccc3ncc(Cc4ccc5ncn(C)c5c4)n3n2)cn1 [Example 200, 3-(3-Methyl-3H-benzoimidazol-5-ylmethyl)-6-(1-methyl-1H-pyrazol-4-yl)-imidazo[1,2-b]pyridazine]",23 nM
16,"Cn1cc(-c2ccc3ncc(C(O)c4cc5cccnc5cc4F)n3n2)cn1 (racemic) [Example 248, (rac)-7-Fluoro-quinolin-6-yl)-[6-(1-methyl-1H-pyrazol-4-yl)-imidazo[1,2-b]pyridazin-3-yl]-methanol]",370 nM
17,"c1cnc2ccc(Cc3cnc4ccc(-c5ccsc5)nn34)cc2c1 [Example 65, 6-(6-Thiophen-3-yl-imidazo[1,2-b]pyridazin-3-ylmethyl)-quinoline]",160 nM
18,"C[C@@H](c1cc2cnn(C)c2cc1F)c1cnc2ccc(-c3cnn(C)c3)nn12 [Example 194, 3-[(S)-1-(6-Fluoro-1-methyl-1H-indazol-5-yl)-ethyl]-6-(1-methyl-1H-pyrazol-4-yl)-imidazo[1,2-b]pyridazine]",18 nM
19,"OCCn1cc(-c2ccc3ncc(Cc4cc5cccnc5cc4F)n3n2)cn1 [Example 254, 2-{4-[3-(7-Fluoro-quinolin-6-ylmethyl)-imidazo[1,2-b]pyridazin-6-yl]-pyrazol-1-yl}-ethanol]",33 nM
20,"CN(C)c1ccc2ncc(Cc3ccc4ncccc4c3)n2n1 [Example 106, Dimethyl-(3-quinolin-6-ylmethyl-imidazo[1,2-b]pyridazin-6-yl)-amine]",74 nM

row,SMILES,IC50
1,"CC(c1cc2cnn(C)c2cc1F)c1cnc2ccc(-c3cnn(C)c3)nn12 (racemic) [Example 278, (rac)-3-[1-(6-Fluoro-1-methyl-1H-indazol-5-yl)-ethyl]-6-(1-methyl-1H-pyrazol-4-yl)-imidazo[1,2-b]pyridazine]",21 nM
2,"C[C@@H](c1ccc2ncccc2c1)c1cnc2ccc(-c3cnn(C)c3)nn12 [Example 159, 6-{(S)-1-[6-(1-Methyl-1H-pyrazol-4-yl)-imidazo[1,2-b]pyridazin-3-yl]-ethyl}-quinoline]",14 nM
3,"CC(O)(c1c(F)cc2ncccc2c1F)c1cnc2ccc(-c3cnn(CCO)c3)nn12 (racemic) [Example 267, (rac)-1-(5,7-Difluoro-quinolin-6-yl)-1-{6-[1-(2-hydroxy-ethyl)-1H-pyrazol-4-yl]-imidazo[1,2-b]pyridazin-3-yl}-ethanol]",260 nM
4,"Cn1cc(-c2ccc3ncc(Cc4ccc5ncccc5c4)n3n2)cn1 [Example 2, 6-[6-(1-Methyl-1H-pyrazol-4-yl)-imidazo[1,2-b]pyridazin-3-ylmethyl]-quinoline]",14 nM
5,"CCC(CC)Nc1ccc2ncc(Cc3ccc4ncccc4c3)n2n1 [Example 90, (1-Ethyl-propyl)-(3-quinolin-6-ylmethyl-imidazo[1,2-b]pyridazin-6-yl)-amine]",74 nM
6,"Cn1cc(-c2ccc3ncc(Cc4ccc5ncc(Cl)n5c4)n3n2)cn1 [Example 298, 3-(3-Chloro-imidazo[1,2-a]pyridin-6-ylmethyl)-6-(1-methyl-1H-pyrazol-4-yl)-imidazo[1,2-b]pyridazine]",130 nM
7,"Clc1ccc(-c2ccc3ncc(Cc4ccc5ncccc5c4)n3n2)s1 [Example 41, 6-[6-(5-Chloro-thiophen-2-yl)-imidazo[1,2-b]pyridazin-3-ylmethyl]-quinoline]",56 nM
8,"COCCn1cc(-c2ccc3ncc(Cc4cc5cccnc5cc4F)n3n2)cn1 [Example 234, 7-Fluoro-6-{6-[1-(2-methoxy-ethyl)-1H-pyrazol-4-yl]-imidazo[1,2-b]pyridazin-3-ylmethyl}-quinoline]",110 nM
9,"C[C@@H](c1ccc2ncccc2c1)c1cnc2ccc(-c3cnn(C4CCN(C)CC4)c3)nn12 [Example 239, 6-((S)-1-{6-[1-(1-Methyl-piperidin-4-yl)-1H-pyrazol-4-yl]-imidazo[1,2-b]pyridazin-3-yl}-ethyl)quinoline]",31 nM
10,"CC(c1ccc2n[nH]cc2c1)c1cnc2ccc(-c3cnn(CCO)c3)nn12 (racemic) [Example 190, (rac)-2-(4-{3-[1-(2H-Indazol-5-yl)-ethyl]-imidazo[1,2-b]pyridazin-6-yl}-pyrazol-1-yl)-ethanol]",56 nM
11,"Cn1cc(-c2ccc3ncc([C@@H](O)c4ccc5ncccc5c4)n3n2)cn1 [Example 152, (S)-[6-(1-Methyl-1H-pyrazol-4-yl)-imidazo[1,2-b]pyridazin-3-yl]-quinolin-6-yl-methanol]",890 nM
12,"CC(=O)N1CCC(n2cc(-c3ccc4ncc(Cc5cc6cccnc6cc5F)n4n3)cn2)CC1 [Example 230, 1-(4-{4-[3-(7-Fluoro-quinolin-6-ylmethyl)-imidazo[1,2-b]pyridazin-6-yl]-pyrazol-1-yl}-piperidin-1-yl)-ethanone]",27 nM
13,"C[C@H](c1ccc2nccn2c1)c1cnc2ccc(-c3cnn(C)c3)nn12 [Example 294, 3-((R)-1-Imidazo[1,2-a]pyridin-6-yl-ethyl)-6-(1-methyl-1H-pyrazol-4-yl)-imidazo[1,2-b]pyridazine]",820 nM
14,"N#Cc1ccc2ncc(Cc3ccc4ncccc4c3)n2n1 [Example 208, 3-Quinolin-6-ylmethyl-imidazo[1,2-b]pyridazine-6-carbonitrile]",52 nM
15,"OCCn1cc(-c2ccc3ncc(Cc4ccc5ncccc5c4Cl)n3n2)cn1 [Example 226, 2-{4-[3-(5-Chloro-quinolin-6-ylmethyl)-imidazo[1,2-b]pyridazin-6-yl]-pyrazol-1-yl}-ethanol]",25 nM
16,"CC(c1c(F)cc2ncccc2c1F)c1cnc2ccc(-c3cnn(CCO)c3)nn12 (racemic) [Example 182, (rac)-2-(4-{3-[1-(5,7-Difluoro-quinolin-6-yl)-ethyl]-imidazo[1,2-b]pyridazin-6-yl}-pyrazol-1-yl)ethanol]",3 nM
17,"Cn1cc(-c2ccc3ncc(C(O)c4ccc5ncccc5c4F)n3n2)cn1 (racemic) [Example 247, (rac)-(5-Fluoro-quinolin-6-yl)-[6-(1-methyl-1H-pyrazol-4-yl)-imidazo[1,2-b]pyridazin-3-yl]-methanol]",66 nM
18,"c1ccc2cc(-c3ccc4ncc(Cc5ccc6ncccc6c5)n4n3)ccc2c1 [Example 17, 6-(6-Naphthalen-2-yl-imidazo[1,2-b]pyridazin-3-ylmethyl)-quinoline]",210 nM
19,"CNCCn1cc(-c2ccc3ncc(Cc4ccc5ncccc5c4)n3n2)cn1 [Example 237, Methyl-{2-[4-(3-quinolin-6-ylmethyl-imidazo[1,2-b]pyridazin-6-yl)-pyrazol-1-yl]-ethyl}-amine]",170 nM
